Data as given in PubChem BioAssay AID256 (DTP/NCI, 2004).
Inconclusive results and toxic doses are left out. How the source made its calls: active means survival T/C of 150% or more; inactive means T/C below 125% in these data.

Test system: CD2F1 mice, L1210 leukemia ip, survival T/C
Experiment: NCI In Vivo Anticancer Drug Screen. Data for tumor model L1210 Leukemia (intraperitoneal) in CD2F1 (CDF1) mice
Conditions: endpoint: mean survival time, higher = longer survival
In short: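 Activity against a transplanted murine tumor was judged by comparing the compound group with a vehicle group. The outcome in the treated animals was divided by that in the controls.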

[1] = dose: 100.0 mg/kg/injection, schedule: Q01DX001 (ip), vehicle: saline with Tween-80
[2] = dose: 100.0 mg/kg/injection, schedule: Q01DX009 (ip), vehicle: saline with Tween-80
[3] = dose: 200.0 mg/kg/injection, schedule: Q01DX001 (ip), vehicle: saline with Tween-80
[4] = dose: 200.0 mg/kg/injection, schedule: Q01DX009 (ip), vehicle: saline with Tween-80
[5] = dose: 400.0 mg/kg/injection, schedule: Q01DX001 (ip), vehicle: saline with Tween-80
[6] = dose: 50.0 mg/kg/injection, schedule: Q01DX009 (ip), vehicle: saline with Tween-80
[7] = dose: 100.0 mg/kg/injection, schedule: Q01DX001 (ip), vehicle: saline
[8] = dose: 200.0 mg/kg/injection, schedule: Q01DX001 (ip), vehicle: saline
[9] = dose: 400.0 mg/kg/injection, schedule: Q01DX001 (ip), vehicle: saline
[10] = dose: 100.0 mg/kg/injection, schedule: Q04DX003 (ip), vehicle: saline with Tween-80
[11] = dose: 200.0 mg/kg/injection, schedule: Q04DX003 (ip), vehicle: saline with Tween-80
[12] = dose: 400.0 mg/kg/injection, schedule: Q04DX003 (ip), vehicle: saline with Tween-80
[13] = dose: 50.0 mg/kg/injection, schedule: Q04DX002 (ip), vehicle: saline with Tween-80

Measured: T/C

C(=C\c1ccccn1)/c1ccccc1
inactive: [1] 100 % of control | [2] 94 % of control | [3] 89 % of control | [4] 101 % of control | [5] 92 % of control

O=C1O/C(=C\c2ccccc2)c2c(Br)c(Br)c(Br)c(Br)c21
inactive: dose: 37.5 mg/kg/injection, schedule: Q01DX009 (ip), vehicle: saline 96 % of control | dose: 75.0 mg/kg/injection, schedule: Q01DX009 (ip), vehicle: saline 96 % of control | dose: 150.0 mg/kg/injection, schedule: Q01DX009 (ip), vehicle: saline 98 % of control | dose: 300.0 mg/kg/injection, schedule: Q01DX009 (ip), vehicle: saline 100 % of control

O=[n+]1ccn2cc3ccccc3cc2c1
inactive: dose: 12.5 mg/kg/injection, schedule: Q04DX003 (ip), vehicle: saline with Tween-80 86 % of control | dose: 50.0 mg/kg/injection, schedule: Q04DX003 (ip), vehicle: saline with Tween-80 100 % of control

Cn1cnc2ccc(Cl)cc21
inactive: [6] 102 % of control | [2] 98 % of control | [4] 95 % of control

Cc1noc2c1ncc[n+]2[O-]
inactive: dose: 5.0 mg/kg/injection, schedule: Q04DX003 (ip), vehicle: saline 101 % of control | dose: 10.0 mg/kg/injection, schedule: Q04DX003 (ip), vehicle: saline 101 % of control | dose: 20.0 mg/kg/injection, schedule: Q04DX003 (ip), vehicle: saline 100 % of control

OCC1OC(Oc2ccc(O)cc2)C(O)C(O)C1O (stereo unspecified)
inactive: dose: 50.0 mg/kg/injection, schedule: Q01DX009 (ip), vehicle: saline 103 % of control | [7] 101 % of control | dose: 100.0 mg/kg/injection, schedule: Q01DX009 (ip), vehicle: saline 103 % of control | [8] 117 % of control | dose: 200.0 mg/kg/injection, schedule: Q01DX009 (ip), vehicle: saline 95 % of control | [9] 101 % of control | dose: 400.0 mg/kg/injection, schedule: Q01DX009 (ip), vehicle: saline 100 % of control

CC(=O)Nc1nc(C)c(CC/C=C/c2ccc([N+](=O)[O-])cc2)c(Cl)n1
inactive: [1] 94 % of control | [3] 89 % of control | [5] 89 % of control

O=P(Oc1ccccc1)(Oc1ccccc1)C(Nc1ccccc1)c1ccccc1 (stereo unspecified)
inactive: [2] 88 % of control | [4] 97 % of control | dose: 400.0 mg/kg/injection, schedule: Q01DX009 (ip), vehicle: saline with Tween-80 89 % of control

CC1(C)CC2(OC2c2cccc(Cl)c2)C(=O)c2ccccc21 (stereo unspecified)
inactive: dose: 100.0 mg/kg/injection, schedule: Q01DX009 (ip), vehicle: other 94 % of control | dose: 200.0 mg/kg/injection, schedule: Q01DX009 (ip), vehicle: other 94 % of control | dose: 400.0 mg/kg/injection, schedule: Q01DX009 (ip), vehicle: other 91 % of control

C/C(=N/Nc1ccccc1)c1cccs1
inactive: [1] 102 % of control | [3] 102 % of control | [5] 94 % of control

CCOC(=O)Nc1cc(N)c(N)c(=O)[nH]1
inactive: dose: 100.0 mg/kg/injection, schedule: Q01DX001 (ip), vehicle: carboxymethylcellulose (CMC) 102 % of control | dose: 200.0 mg/kg/injection, schedule: Q01DX001 (ip), vehicle: carboxymethylcellulose (CMC) 96 % of control | dose: 400.0 mg/kg/injection, schedule: Q01DX001 (ip), vehicle: carboxymethylcellulose (CMC) 102 % of control

Cn1cnc(C(=N)[Se])c1N
inactive: dose: 0.78 mg/kg/injection, schedule: Q01DX005 (ip), vehicle: water 90 % of control | dose: 1.56 mg/kg/injection, schedule: Q01DX005 (ip), vehicle: water 102 % of control | dose: 3.13 mg/kg/injection, schedule: Q01DX005 (ip), vehicle: water 100 % of control | dose: 6.25 mg/kg/injection, schedule: Q01DX005 (ip), vehicle: water 90 % of control | dose: 12.5 mg/kg/injection, schedule: Q01DX005 (ip), vehicle: water 100 % of control

CCN1c2ccccc2Sc2cc(C=O)ccc21
inactive: dose: 50.0 mg/kg/injection, schedule: Q01DX009 (ip), vehicle: Klucel (hydroxypropylcellulose) (HPC) 97 % of control | dose: 100.0 mg/kg/injection, schedule: Q01DX009 (ip), vehicle: Klucel (hydroxypropylcellulose) (HPC) 108 % of control

CC(NC(=O)OCc1ccccc1)C(=O)O (stereo unspecified)
inactive: [2] 97 % of control | [10] 100 % of control | [4] 94 % of control | [11] 105 % of control | [12] 103 % of control

CCC(CNCCCCCC(=O)O)(C(=O)O)C(=O)O
inactive: dose: 12.5 mg/kg/injection, schedule: Q04DX002 (ip), vehicle: saline with Tween-80 90 % of control | dose: 25.0 mg/kg/injection, schedule: Q04DX002 (ip), vehicle: saline with Tween-80 98 % of control | [13] 94 % of control

Nc1nc(OCc2ccccc2)ncc1C(=O)NC(CO)C(=O)O (stereo unspecified)
inactive: dose: 6.25 mg/kg/injection, schedule: Q01DX009 (ip), vehicle: saline with Tween-80 100 % of control | dose: 12.5 mg/kg/injection, schedule: Q01DX009 (ip), vehicle: saline with Tween-80 98 % of control | dose: 25.0 mg/kg/injection, schedule: Q01DX009 (ip), vehicle: saline with Tween-80 102 % of control

NCCCC(NN)C(=O)O (stereo unspecified)
inactive: dose: 7.5 mg/kg/injection, schedule: Q01DX009 (ip), vehicle: saline 100 % of control | dose: 15.0 mg/kg/injection, schedule: Q01DX009 (ip), vehicle: saline 97 % of control | dose: 30.0 mg/kg/injection, schedule: Q01DX009 (ip), vehicle: saline 94 % of control

O=c1c2c([nH]c3ccccc13)CSC2
inactive: [10] 92 % of control | [11] 87 % of control | [12] 94 % of control

NC(=O)N/N=C1\CC(S(=O)(=O)O)NC(=O)N1 (stereo unspecified)
inactive: [13] 98 % of control | dose: 100.0 mg/kg/injection, schedule: Q04DX002 (ip), vehicle: saline with Tween-80 95 % of control | dose: 200.0 mg/kg/injection, schedule: Q04DX002 (ip), vehicle: saline with Tween-80 95 % of control

COc1cc(OC)c(/C=C/c2cc3c4ccccc4ccc3[n+](C)c2)c(OC)c1
inactive: dose: 12.5 mg/kg/injection, schedule: Q01DX001 (ip), vehicle: saline with Tween-80 104 % of control | dose: 25.0 mg/kg/injection, schedule: Q01DX001 (ip), vehicle: saline with Tween-80 112 % of control | dose: 50.0 mg/kg/injection, schedule: Q01DX001 (ip), vehicle: saline with Tween-80 101 % of control | [1] 94 % of control

CCOC(=O)/C=C/C1CCCCC1
inactive: [6] 96 % of control | [2] 104 % of control | [4] 96 % of control

O=C1C(c2ccccc2)CN1C1CCCCC1 (stereo unspecified)
inactive: [7] 104 % of control | [8] 101 % of control | [9] 87 % of control

COC1=CC=C2[C@@H]3Cc4ccc(OC)c5c4[C@]2(CCN3CCO)C1O5 (stereo partly specified)
inactive: dose: 25.0 mg/kg/injection, schedule: Q04DX003 (ip), vehicle: DMSO 94 % of control | dose: 50.0 mg/kg/injection, schedule: Q04DX003 (ip), vehicle: DMSO 96 % of control | dose: 100.0 mg/kg/injection, schedule: Q04DX003 (ip), vehicle: DMSO 94 % of control | dose: 200.0 mg/kg/injection, schedule: Q04DX003 (ip), vehicle: DMSO 91 % of control | dose: 400.0 mg/kg/injection, schedule: Q04DX003 (ip), vehicle: DMSO 105 % of control
